Laboratory results published in publication PMC5653858, “A single extracellular amino acid in Free Fatty Acid Receptor 2 defines antagonist species selectivity and G protein selection bias” (Scientific Reports, 2017).
Numbering of substitutions follows the chain as printed.

Experiments:
Lys^65Arg hFFA2 [1] = target: T1, Lys^65Arg hFFA2 (Homo sapiens, UniProt O15552, K65R); experiment: inositol monophosphate accumulation assay, Lys65Arg hFFA2; format: cell-based
T1 construct: NanoLuc Luciferase (N); eYFP; expressed in transfected cells; host or cells: Flp-In T-REx HEK293, doxycycline-induced
T1 sequence (O15552 1-330 K65R): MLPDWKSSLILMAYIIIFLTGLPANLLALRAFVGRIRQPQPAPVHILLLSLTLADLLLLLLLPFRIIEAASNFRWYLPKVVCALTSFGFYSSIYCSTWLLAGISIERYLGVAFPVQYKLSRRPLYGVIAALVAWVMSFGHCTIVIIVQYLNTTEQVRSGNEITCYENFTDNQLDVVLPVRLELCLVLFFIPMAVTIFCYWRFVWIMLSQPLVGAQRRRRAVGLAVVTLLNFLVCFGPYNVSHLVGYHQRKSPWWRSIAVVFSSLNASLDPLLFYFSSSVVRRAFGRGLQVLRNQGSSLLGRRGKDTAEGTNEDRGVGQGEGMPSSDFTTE
Description: (§1) All cAMP and inositol monophosphate experiments were performed using Flp-In T-REx HEK293 cells induced to express the receptor of interest. Experiments were carried out using respective homogenous time-resolved FRET-based detection kits (CisBio Bioassays; CisBio, Codolet, France) according to the manufacturer’s protocol. For the cAMP inhibition assay cells were plated at 2000 cells/well in low-volume 384-well plates. The ability of agonists to inhibit 1 μM forskolin-induced cAMP production was assessed following a co-incubation for 30 min with agonist compounds. For the inositol monophosphate accumulation assay cells were plated at 7500 cells/well in low-volume 384-well plates and incubated for 2 h at 37 °C with test compounds. To assess ability of antagonists to inhibit agonist responses, cells were pre-incubated with antagonist compounds for 30 min at 37 °C prior to addition of an EC80 concentration of agonist. Respective reactions were stopped according to the manufacturer’s instructions and the output was measured by with a PHERAstar FS plate reader (BMGLabtech, Aylesbury, UK).

Lys^65Ala hFFA2 [2] = target: T2, Lys^65Ala hFFA2 (Homo sapiens, UniProt O15552, K65A); experiment: HTRF cAMP inhibition assay, Lys65Ala hFFA2; format: cell-based; parameters: NanoLuc Luciferase (N); eYFP; expressed in transfected cells; host or cells: Flp-In T-REx HEK293, doxycycline-induced; settings: inhibition of 1 μM forskolin-induced cAMP, K65A hFFA2
T2 sequence (O15552 1-330 K65A): T1 sequence (O15552 1-330 K65R) with R65A
Description: as §1

Lys^65Glu hFFA2 [3] = target: T3, Lys^65Glu hFFA2 (Homo sapiens, UniProt O15552, K65E); experiment: HTRF cAMP inhibition assay, Lys65Glu hFFA2; format: cell-based; settings: inhibition of 1 μM forskolin-induced cAMP, K65E hFFA2
T3 construct: NanoLuc Luciferase (N); eYFP; expressed in transfected cells; host or cells: Flp-In T-REx HEK293, doxycycline-induced
T3 sequence (O15552 1-330 K65E): T1 sequence (O15552 1-330 K65R) with R65E
Description: as §1

hFFA2 [4] = target: T4, hFFA2 (Homo sapiens, UniProt O15552); experiment: HTRF cAMP inhibition assay, wild type hFFA2; format: cell-based; parameters: expressed in transfected cells; settings: inhibition of 1 μM forskolin-induced cAMP
T4 sequence (O15552 1-330): T1 sequence (O15552 1-330 K65R) with R65K
Description: as §1

hFFA2 [5] = target: T4, hFFA2; experiment: [35S]GTPγS incorporation assay, wild type hFFA2; format: biochemical; parameters: HA-tag (C); expressed in transfected cells; host or cells: HEK293, parental and CRISPR/Cas9 G protein-deleted lines, transient transfection; settings: membranes
Description: (§2) Initially, 5 μg of generated membrane protein was pre-incubated for 15 min at 25 °C in assay buffer (50 mM Tris-HCl, 10 mM MgCl2; 100 mM NaCl; 1 mM EDTA; 1 μM GDP; 0.1% fatty acid-free bovine serum albumin; pH 7.4) containing the indicated ligand concentrations. […] Unbound radioligand was removed from filters by three washes with ice-cold wash buffer (50 mM Tris-HCl, 10 mM MgCl2; pH 7.4) and filters were dried for 2–3 h at room temperature. Dried filters were added to 3 mL of Ultima Gold^TM XR (PerkinElmer Life Sciences, Beaconsfield, UK) and [^35S]GTPγS binding was determined by liquid scintillation spectrometry.

Lys^65Ala hFFA2 [6] = target: T2, Lys^65Ala hFFA2; experiment: inositol monophosphate accumulation assay, Lys65Ala hFFA2; format: cell-based; parameters: NanoLuc Luciferase (N); eYFP; expressed in transfected cells; host or cells: Flp-In T-REx HEK293, doxycycline-induced
Description: as §1

Lys^65Ala hFFA2 [7] = target: T2, Lys^65Ala hFFA2; experiment: [35S]GTPγS incorporation assay, Lys65Ala hFFA2; format: biochemical; parameters: NanoLuc Luciferase (N); eYFP; expressed in transfected cells; host or cells: Flp-In T-REx HEK293, doxycycline-induced; settings: membranes
Description: as §2

Lys^65Glu hFFA2 [8] = target: T3, Lys^65Glu hFFA2; experiment: inositol monophosphate accumulation assay, Lys65Glu hFFA2; format: cell-based
Description: as §1

Lys^65Glu hFFA2 [9] = target: T3, Lys^65Glu hFFA2; experiment: [35S]GTPγS incorporation assay, Lys65Glu hFFA2; format: biochemical; settings: membranes
Description: as §2

Lys^65Arg hFFA2 [10] = target: T1, Lys^65Arg hFFA2; experiment: HTRF cAMP inhibition assay, Lys65Arg hFFA2; format: cell-based; settings: inhibition of 1 μM forskolin-induced cAMP
Description: as §1

hFFA2 [11] = target: T4, hFFA2; experiment: inositol monophosphate accumulation assay, wild type hFFA2; format: cell-based; parameters: expressed in transfected cells; settings: wild type hFFA2
Description: as §1

Lys^65Arg hFFA2 [12] = target: T1, Lys^65Arg hFFA2; experiment: [35S]GTPγS incorporation assay, Lys65Arg hFFA2; format: biochemical; settings: membranes
Description: as §2

## Cc1nc(NC(=N)N)sc1-c1cccc(NC(=O)c2ccc(F)cc2)c1 [AZ1729, N-[3-(2-carbamimidamido-4-methyl-1,3-thiazol-5-yl)phenyl]-4-fluoro benzamide]
Lys^65Arg hFFA2 [1]
  inositol monophosphate production via Lys65Arg hFFA2: unable to promote inositol monophosphate production
Lys^65Ala hFFA2 [2]
  pEC50 cAMP, K65A: 6.42 ± 0.03
Lys^65Glu hFFA2 [3]
  pEC50 cAMP, K65E: 6.45 ± 0.15
hFFA2 [4]
  pEC50 cAMP, WT: 6.35 ± 0.13
hFFA2 [5]
  pEC50 GTPγS, WT: 6.97 ± 0.02
Lys^65Ala hFFA2 [6]
  inositol monophosphate production via Lys65Ala hFFA2: unable to promote inositol monophosphate production
Lys^65Ala hFFA2 [7]
  pEC50 GTPγS, K65A: 6.94 ± 0.14
Lys^65Glu hFFA2 [8]
  inositol monophosphate production via Lys65Glu hFFA2: unable to promote inositol monophosphate production
Lys^65Glu hFFA2 [9]
  pEC50 GTPγS, K65E: 6.79 ± 0.12
Lys^65Arg hFFA2 [10]
  pEC50 cAMP, K65R: 6.47 ± 0.15
hFFA2 [11]
  accumulation of inositol monophosphates via hFFA2: unable to promote accumulation of inositol monophosphates
Lys^65Arg hFFA2 [12]
  pEC50 GTPγS, K65R: 6.79 ± 0.07
